# Measurements published in US20200361871A1 (Enterprise Therapeutics Ltd., priority 2018, published 2020).
# Entries after “also recorded” stand apart in the source; their conditions may differ.
# Tests used:
# [1] = Storage of forms of Compound 36 at 40° C./75% RH in open vials, XRPD; assay type: physicochemical; settings: open vial, 7 days
# Procedure: Form A was stored at 40° C./75% RH, in an open vial. […] Therefore, Form A is stable to exposure to elevated temperature and humidity for up to 2 weeks and no evidence of a hydrated form was observed.
# One sample of each of the new forms (Forms B, C, D, E, E+extra peaks, F, G and H) was analysed by ^1H NMR, TGA, DSC and stored at 40° C./75% RH. Results are summarised in Table E with Form A for comparison.
# [2] = target: human TMEM16A (TMEM16Aabc variant) (Homo sapiens, UniProt Q5XXA6, DEL476-501, form not given); test: Automated whole-cell patch clamp (Qpatch) TMEM16A potentiator assay in FRT cells stably expressing human TMEM16A; assay type: cell-based; settings: for % Potentiation @ 3.33 μM Avg: 3.33 μM solution of test compound, percentage increase of baseline TMEM16A current; for EC50: calculated EC50, Qpatch TMEM16A current at +70 mV
# Outline: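 FRT cells stably expressing human TMEM16Aabc were recorded by automated whole-cell patch clamp, with intracellular Ca2+ buffered for ~EC20 activation, holding −70 mV and step to +70 mV at 0.05 Hz. Compound was applied cumulatively, 5 min per concentration. Peak current increase as % of baseline was fitted to give EC50 and maximum efficacy.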
# human TMEM16A (TMEM16Aabc variant), sequence (Q5XXA6 with tags, fused parts or gaps DEL476-501): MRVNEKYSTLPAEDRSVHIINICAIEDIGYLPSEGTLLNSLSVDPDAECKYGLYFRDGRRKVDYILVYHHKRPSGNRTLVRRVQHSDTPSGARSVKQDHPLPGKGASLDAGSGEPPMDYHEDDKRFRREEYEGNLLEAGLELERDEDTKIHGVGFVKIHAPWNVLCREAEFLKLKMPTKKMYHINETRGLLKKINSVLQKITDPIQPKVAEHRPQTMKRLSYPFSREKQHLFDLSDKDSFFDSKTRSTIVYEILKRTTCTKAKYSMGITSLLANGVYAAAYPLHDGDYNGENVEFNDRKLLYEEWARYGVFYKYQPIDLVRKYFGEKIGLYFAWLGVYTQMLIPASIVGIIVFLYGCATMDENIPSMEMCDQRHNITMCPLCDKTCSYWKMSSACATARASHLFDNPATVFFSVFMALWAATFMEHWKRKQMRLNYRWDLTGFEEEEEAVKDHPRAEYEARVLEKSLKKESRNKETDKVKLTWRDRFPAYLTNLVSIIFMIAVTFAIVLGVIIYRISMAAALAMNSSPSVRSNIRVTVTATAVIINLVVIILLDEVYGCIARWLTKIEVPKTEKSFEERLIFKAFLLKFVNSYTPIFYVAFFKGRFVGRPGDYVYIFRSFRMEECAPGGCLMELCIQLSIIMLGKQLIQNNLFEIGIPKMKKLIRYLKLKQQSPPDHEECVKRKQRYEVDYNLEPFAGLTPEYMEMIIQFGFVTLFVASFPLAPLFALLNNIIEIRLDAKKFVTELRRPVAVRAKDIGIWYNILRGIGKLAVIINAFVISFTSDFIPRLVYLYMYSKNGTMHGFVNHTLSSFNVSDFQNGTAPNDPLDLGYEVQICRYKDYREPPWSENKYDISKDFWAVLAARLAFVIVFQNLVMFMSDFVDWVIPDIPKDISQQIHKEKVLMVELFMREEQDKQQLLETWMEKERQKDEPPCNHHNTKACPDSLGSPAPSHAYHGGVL
SMILES,Storage at 40° C./75% RH (change of form by XRPD) [1],% Potentiation @ 3.33 μM Avg [2],EC50 [2]
"C#CC(C)(C)NC(=O)c1cc(NC(=O)Cc2cc(Cl)ccc2O)ccn1 [Compound 36 Form B, 4-[[2-(5-Chloro-2-hydroxy-phenyl)acetyl]amino]-N-(1,1-dimethylprop-2-ynyl)pyridine-2-carboxamide]",stable; also recorded: No change (7 days),,
"C#CC(C)(C)NC(=O)c1cc(NC(=O)Cc2cc(Cl)ccc2O)ccn1 [Compound 36 Form C, 4-[[2-(5-Chloro-2-hydroxy-phenyl)acetyl]amino]-N-(1,1-dimethylprop-2-ynyl)pyridine-2-carboxamide]",Changed to mainly,,
"C#CC(C)(C)NC(=O)c1cc(NC(=O)Cc2cc(Cl)ccc2O)ccn1 [Compound 36 Form D, 4-[[2-(5-Chloro-2-hydroxy-phenyl)acetyl]amino]-N-(1,1-dimethylprop-2-ynyl)pyridine-2-carboxamide]",converted to a mixture of Form A and Form B; also recorded: Changed to mainly,,
"C#CC(C)(C)NC(=O)c1cc(NC(=O)Cc2cc(Cl)ccc2O)ccn1 [Compound 36 Form E, 4-[[2-(5-Chloro-2-hydroxy-phenyl)acetyl]amino]-N-(1,1-dimethylprop-2-ynyl)pyridine-2-carboxamide]",Changed to mainly,,
"C#CC(C)(C)NC(=O)c1cc(NC(=O)Cc2cc(Cl)ccc2O)ccn1 [Compound 36 Form F, 4-[[2-(5-Chloro-2-hydroxy-phenyl)acetyl]amino]-N-(1,1-dimethylprop-2-ynyl)pyridine-2-carboxamide]",stable; also recorded: No change (7,,
"C#CC(C)(C)NC(=O)c1cc(NC(=O)Cc2cc(Cl)ccc2O)ccn1 [Compound 36 Form G, 4-[[2-(5-Chloro-2-hydroxy-phenyl)acetyl]amino]-N-(1,1-dimethylprop-2-ynyl)pyridine-2-carboxamide]",Changed to Form A,,
"Cc1noc(-c2ccccc2C(=O)Nc2ccnc(C(=O)NC(C)(C)C#N)c2)n1 [Example 83.23, N-(1-Cyano-1-methyl-ethyl)-4-[[2-(3-methyl-1,2,4-oxadiazol-5-yl)benzoyl]amino]pyridine-2-carboxamide]",,-11%,
"Cc1nn(-c2ccccc2)cc1C(=O)Nc1ccnc(C(=O)NC(C)(C)C#N)c1 [Example 83.24, N-(1-Cyano-1-methyl-ethyl)-4-[(3-methyl-1-phenyl-pyrazole-4-carbonyl)amino]pyridine-2-carboxamide]",,55%,
"CC(C)(C#N)NC(=O)c1cc(NC(=O)c2cccnc2Oc2ccccc2)ccn1 [Example 83.25, N-[2-[(1-Cyano-1-methyl-ethyl)carbamoyl]-4-pyridyl]-2-phenoxy-pyridine-3-carboxamide]",,-8%,
"Cc1cc(C(=O)Nc2ccnc(C(=O)NC(C)(C)C#N)c2)c(C)n1Cc1cccs1 [Example 83.26, N-(1-Cyano-1-methyl-ethyl)-4-[[2,5-dimethyl-1-(2-thienylmethyl)pyrrole-3-carbonyl]amino]pyridine-2-carboxamide]",,95%,
"COc1ccccc1-c1cc(C(=O)Nc2ccnc(C(=O)NC(C)(C)C#N)c2)no1 [Example 83.27, N-[2-[(1-Cyano-1-methyl-ethyl)carbamoyl]-4-pyridyl]-5-(2-methoxyphenyl)isoxazole-3-carboxamide]",,-11%,
"Cc1nc(-c2ccccc2)sc1C(=O)Nc1ccnc(C(=O)NC(C)(C)C#N)c1 [Example 83.28, N-[2-[(1-Cyano-1-methyl-ethyl)carbamoyl]-4-pyridyl]-4-methyl-2-phenyl-thiazole-5-carboxamide]",,20%,
"CC(=O)Nc1ccc(C(=O)Nc2ccnc(C(=O)NC(C)(C)C#N)c2)cc1 [Example 83.29, 4-[(4-Acetamidobenzoyl)amino]-N-(1-cyano-1-methyl-ethyl)pyridine-2-carboxamide]",,-9%,
"CC(C)(C#N)NC(=O)c1cc(NC(=O)c2cccc3ncsc23)ccn1 [Example 83.30, N-[2-[(1-Cyano-1-methyl-ethyl)carbamoyl]-4-pyridyl]-1,3-benzothiazole-7-carboxamide]",,93%,
"CC(CC(=O)Nc1ccnc(C(=O)NC(C)(C)C#N)c1)c1ccc(F)cc1 (stereo not shown) [Example 83.31, N-(1-Cyano-1-methyl-ethyl)-4-[3-(4-fluorophenyl)butanoylamino]pyridine-2-carboxamide]",,78%,
"Cn1c(=O)c(C(=O)Nc2ccnc(C(=O)NC(C)(C)C#N)c2)cc2ccccc21 [Example 83.32, N-[2-[(1-Cyano-1-methyl-ethyl)carbamoyl]-4-pyridyl]-1-methyl-2-oxo-quinoline-3-carboxamide]",,-16%,

SMILES,Storage at 40° C./75% RH (change of form by XRPD) [1],% Potentiation @ 3.33 μM Avg [2],EC50 [2]
"CC(C)(C)NC(=O)c1cc(NC(=O)Cc2cc(Cl)ccc2O)ncn1 [Example 85, N-tert-Butyl-6-[[2-(5-chloro-2-hydroxy-phenyl)acetyl]amino] pyrimidine-4-carboxamide]",,155%,350 nM
"COCC(C#N)(COC)NC(=O)c1cc(NC(=O)Cc2cc(Cl)ccc2O)ccn1 [Example 86, 4-[[2-(5-Chloro-2-hydroxy-phenyl)acetyl]amino]-N-[1-cyano-2-methoxy-1-(methoxymethyl)ethyl]pyridine-2-carboxamide]",,593%,350 nM
"CC(C)(C)NC(=O)c1cc(NC(=O)Cc2ccc(C(C)(C)C)c(N)c2)ccn1 [Example 87, 4-[[2-(3-Amino-4-tert-butyl-phenyl)acetyl]amino]-N-tert-butyl-pyridine-2-carboxamide]",,332%,220 nM
"CC(C)(C)NC(=O)c1cc(NC(=O)Cc2ccc(C(C)(C)C)cc2N)ccn1 [Example 88, 4-[[2-(2-Amino-4-tert-butyl-phenyl)acetyl]amino]-N-tert-butyl-pyridine-2-carboxamide]",,270%,240 nM
"CC(C)(C)NC(=O)c1cc(NC(=O)Cc2ccc(C(C)(C)C)c(O)c2)ccn1 [Example 89, N-tert-Butyl-4-[[2-(4-tert-butyl-3-hydroxy-phenyl)acetyl]amino]pyridine-2-carboxamide]",,366%,90 nM
"CC(C)(C)NC(=O)c1cc(NC(=O)Cc2ccc(C(C)(C)C)cc2O)ccn1 [Example 90, N-tert-Butyl-4-[[2-(4-tert-butyl-2-hydroxy-phenyl)acetyl]amino]pyridine-2-carboxamide]",,219%,120 nM
"N#CC1(NC(=O)c2cc(NC(=O)Cc3ccc(Cl)c(O)c3)ccn2)CCOCC1 [Example 92, 4-[[2-(4-Chloro-3-hydroxy-phenyl)acetyl]amino]-N-(4-cyanotetrahydropyran-4-yl)pyridine-2-carboxamide]",,133%,110 nM
"CC(C)(C#N)NC(=O)c1cc(NC(=O)Cc2ccc(Cl)c(O)c2)ccn1 [Example 92.1, 4-[[2-(4-Chloro-3-hydroxy-phenyl)acetyl]amino]-N-(1-cyano-1-methyl-ethyl)pyridine-2-carboxamide]",,151%,140 nM
"C#CC(C)(C)NC(=O)c1cc(NC(=O)Cc2ccc(Cl)c(O)c2)ccn1 [Example 92.2, 4-[[2-(4-Chloro-3-hydroxy-phenyl)acetyl]amino]-N-(1,1-dimethylprop-2-ynyl)pyridine-2-carboxamide]",,71%,10 nM
"CC(C)(C)c1ccc(CC(=O)Nc2ccnc(C(=O)N[C@H]3CCCC[C@@H]3O)c2)cc1O [Example 93.1, 4-[2-(4-tert-butyl-3-hydroxyphenyl)acetamido]-N-[(1S,2S)-2-hydroxycyclohexyl]pyridine-2-carboxamide]",,207%,50 nM
"CC(C)(C)c1ccc(CC(=O)Nc2ccnc(C(=O)N[C@H]3CCC[C@@H]3O)c2)cc1O [Example 93.2, 4-[2-(4-tert-butyl-3-hydroxyphenyl)acetamido]-N-[(1S,2S)-2-hydroxycyclopentyl]pyridine-2-carboxamide]",,220%,40 nM
"CC(C)(C)c1ccc(CC(=O)Nc2ccnc(C(=O)NC3(C#N)CCOCC3)c2)cc1O [Example 93.3, 4-[[2-(4-tert-Butyl-3-hydroxy-phenyl)acetyl]amino]-N-(4-cyanotetrahydropyran-4-yl)pyridine-2-carboxamide]",,130%,60 nM
"CC(C)(C#N)NC(=O)c1cc(NC(=O)Cc2ccc(C(C)(C)C)c(O)c2)ccn1 [Example 93.4, 4-[[2-(4-tert-Butyl-3-hydroxy-phenyl)acetyl]amino]-N-(1-cyano-1-methyl-ethyl)pyridine-2-carboxamide]",,476%,70 nM
"C#CC(C)(C)NC(=O)c1cc(NC(=O)Cc2ccc(C(C)(C)C)c(O)c2)ccn1 [Example 93.5, 4-[[2-(4-tert-Butyl-3-hydroxy-phenyl)acetyl]amino]-N-(1,1-dimethylprop-2-ynyl)pyridine-2-carboxamide]",,136%,20 nM
"CC(C)(NC(=O)c1cc(NC(=O)Cc2cc(Cl)ccc2O)ccn1)c1ccccc1 [Example 94, 4-[[2-(5-Chloro-2-hydroxy-phenyl)acetyl]amino]-N-(1-methyl-1-phenyl-ethyl) pyridine-2-carboxamide]",,516%,340 nM
